Assay results published in PMC4703104 (Journal of medicinal chemistry, 2015).

How the values were obtained:
rat = rat models ref 5; cited from earlier work
mouse = mouse models ref 5; cited from earlier work
human δ receptor (hDOPr) [1] = biological target: T1, human δ receptor (hDOPr) (Homo sapiens, UniProt P41143); experiment: [3H]diprenorphine radioligand; type: binding
human δ receptor (hDOPr) [2] = biological target: T1, human δ receptor (hDOPr); experiment: cell-based
Nephelometry = type: physicochemical
δ receptor = δ receptor (Homo sapiens, UniProt P41143); experiment: PathHunter β-arrestin recruitment assay in CHO-OPRD1 cells; type: cell-based
[3] = HBSS + 25 mM HEPES and 10% FBS (β-arrestin assay buffer)
[4] = phosphate buffered saline solution, data not shown

T1 sequence (P41143 whole entry): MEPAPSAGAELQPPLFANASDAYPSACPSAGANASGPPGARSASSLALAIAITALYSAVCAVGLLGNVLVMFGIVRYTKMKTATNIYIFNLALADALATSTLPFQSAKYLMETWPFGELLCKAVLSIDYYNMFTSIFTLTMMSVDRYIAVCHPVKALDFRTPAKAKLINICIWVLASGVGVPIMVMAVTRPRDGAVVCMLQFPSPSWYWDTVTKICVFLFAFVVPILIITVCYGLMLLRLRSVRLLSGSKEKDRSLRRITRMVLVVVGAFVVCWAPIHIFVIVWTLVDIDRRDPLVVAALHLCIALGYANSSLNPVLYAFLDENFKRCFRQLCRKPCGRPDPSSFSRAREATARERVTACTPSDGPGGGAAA
δ receptor, sequence (P41143 whole entry): as above

Question: With `CCN(CC)C(=O)c1ccc(C2=CC3(CCNCC3)Oc3cccc(O)c32)cc1` [ADL5859, N,N-diethyl-4-(5-hydroxyspiro-[chromene-2,4′-piperidine]-4-yl)benzamide] as the molecule, how does the “seizures” value (rat) read?
Answer: no seizures

Question: And the “seizures” value (mouse)?
Answer: no seizures

Question: What does the source list for `CN1CC[C@]2(c3cccc(O)c3)Cc3nc4ccccc4cc3C[C@H]2C1` [TAN67]?
Answer: Ki (human δ receptor (hDOPr) [1]): 10 nM; affinity ratio (vehicle Ki)/(2 Ki) (human δ receptor (hDOPr) [1]; effect of 2 (10 μM) on the orthosteric agonist's Ki): 3; Kd (human δ receptor (hDOPr) [2]): 3.98 nM

Question: Which “concentrations showing particulate matter” value (Nephelometry; [3]) does the source give for `Cc1ccccc1COc1ccc(C2C3=C(CC(C)(C)CC3=O)OC3=C2C(=O)CC(C)(C)C3)cc1` [compound 2, 3,3,6,6-tetramethyl-9-(4-((2-methylbenzyl)oxy)phenyl)-3,4,5,6,7,9-hexahydro-1H-xanthene-1,8(2H)-dione] here?
Answer: above 3 μM

Question: And the “concentrations showing particulate matter” value (Nephelometry; [4])?
Answer: above 1 μM

Question: Which “PAM activity at the δ receptor” value (δ receptor; PAM mode, EC20 of leu-enkephalin) does the source give for `CC1(C)CC(=O)C2=C(C1)OC1=C(C(=O)CC(C)(C)C1)C2c1ccc(OCc2ccc(F)cc2)cc1` [compound 7] here?
Answer: robust potentiation

Question: For `CC1(C)CC(=O)C2=C(C1)OC1=C(C(=O)CC(C)(C)C1)C2c1ccc(OCc2ccccc2Cl)cc1` [compound 8], which “selectivity μ/δ” value (δ receptor; potency ratio of PAM mode EC50 values, β-arrestin recruitment) is on record?
Answer: >33

Question: With `CC1(C)CC(=O)C2=C(C1)OC1=C(C(=O)CC(C)(C)C1)C2c1ccc(OCc2ccccc2Br)cc1` [compound 10, 9-(4-((2-Bromobenzyl)oxy)phenyl)-3,3,6,6-tetramethyl-3,4,5,6,7,9-hexahydro-1H-xanthene-1,8(2H)-dione] as the molecule, how does the “concentrations showing particulate matter” value (Nephelometry; [3]) read?
Answer: above 3 μM

Question: And the “concentrations showing particulate matter” value (Nephelometry; [4])?
Answer: above 1 μM
